{"source": "patent EP1154766B1", "about": "“USE OF R-ARYL PROPIONIC ACIDS FOR PRODUCING MEDICAMENTS TO TREAT DISEASES IN HUMANS AND ANIMALS, WHEREBY SAID DISEASES CAN BE […] INFLUENCED BY INHIBITING THE ACTIVATION OF NF-KAPPA B” (PAZ Arzneimittel- Entwicklungsgesellschaft mbH, priority 1999, dated 2000)", "key": {"NF-κB": {"tested_on": "NF-κB", "assay": "Inhibition of NF-κB activation, method not stated", "conditions": "arylpropionic acid derivatives without notable CoA thioester formation in humans"}, "[1]": {"tested_on": "gastrointestinale Verträglichkeit", "conditions": "studies in humans, literature; cited from earlier work"}, "[2]": {"tested_on": "Zymosan-induzierte Rattenpfotenödem", "assay": "Zymosan-induced rat paw oedema (plethysmograph)", "type": "in vivo, Ratte", "conditions": "for Pfotenvolumen: rat, intraplantar zymosan, R-Flurbiprofen 1 to 27 mg/kg intraperitoneal, Abb. 3a-c", "source_text": "Da der nukleäre Transkriptionsfaktor NF-κB u.a. für die Bildung, einer Reihe von Enzymen mit proinflammatorischer und ödembildender Eigenschaften verantwortlich ist, wurde der Einfluß von R-Flurbiprofen auf das Zymosan-induzierte Rattenpfotenödem bestimmt (Methode beschrieben bei: Meller ST und Gebhart GF: Intraplantar zymosan as a reliable, quantifiable model of thermal and mechanical hyperalgesia in the rat; European Journal of Pain, 1, 43-52 (1997). Abbildung 3 a - c faßt die Ergebnisse zusammen. Abb. 3a - c: Zeitabhängige Zunahme des Rattenpfotenvolumens (gemessen mit einem Plethysmographen) nach intraplantarer Applikation von Zymosan. Nach Applikation von Zymosan [Meller and Gebhart (s.o.)] in eine Hinterpfote der Ratte kommt es als Zeichen einer Entzündung zur Zunahme des Pfotenvolumens (Placebo-Gruppe, Applikation von Vehicle = Phosphatpuffer (PP)). […] Dieser Effekt war besonders ausgeprägt zwischen der 2. und 6. Stunde nach Zymosan-Applikation. Dexamethason (0,5 mg/kg Körpergewicht), ein bekannter Hemmer der NF-κB Aktivierung, wurde als Positivkontrolle eingesetzt. […] S-Flurbiprofen ist ein bekannter Hemmer der Cyclooxygenasen. Abb. 4: Zusammenfassung der Effekte von 9 mg/kg R-Flurbiprofen, 9 mg/kg S-Flurbiprofen und 0,5 mg/kg Dexamethason gegen Placebo (V) über 24 Stunden."}, "[3]": {"tested_on": "akutem Postepisiotomie-Schmerz", "assay": "Placebo-controlled double-blind study in acute post-episiotomy pain", "type": "in vivo, Frauen", "conditions": "single oral dose 25 mg or 100 mg, pain scale 0-3 over 360 min, Abb. 1", "method": "Abb. 1: Placebo-kontrollierte Doppelblind-Studie an 180 Frauen mit akutem Postepisiotomie-Schmerz (Mittelwertkurven)\nDie hospitalisierten Patienten wurden in drei Medikationsgruppen mit je 50 Patienten und einer Placebogruppe (30 Patienten) randomisiert. Jede Patientin erhielt innerhalb 48 Stunden nach der ansonsten normal verlaufenden Entbindung eine Einzeldosis der zu untersuchenden Studienmedikation (25 mg R(-)Flurbiprofen oder 100 mg R(-)Flurbiprofen oder 1000 mg Paracetamol) oder ein Placebo oral verabreicht. Kurz vor der oralen Gabe der Testpräparate bzw. des Placebos und zu genau festgelegten Untersuchungszeitpunkten (15, 30, 45, 60, 120, 180, 240, 300 und 360 Minuten) wurden die Patienten bezüglich ihres Schmerzempfindens befragt. Die Wirksamkeit der einzelnen Präparate wurde anhand einer Schmerzempfindungs-Skala (0 = keine, 1 = mild, 2 = moderat, 3 = stark) beurteilt. Die zeitlichen Verläufe sind in den in Abbildung 1 wiedergegebenen Mittelwertkurven der einzelnen Patientengruppen zusammengefaßt."}, "[4]": {"tested_on": "NF-κB (p50/p65 Komplex von NF-κB)", "assay": "Electro mobility-shift assay (gel retention analysis) of LPS-induced NF-κB activation in RAW cells", "type": "cell-based", "source_text": "Die erfindungsgemäßen Arzneimittel auf der Basis von R-Arylpropionsäuren und deren Derivaten gemäß Anspruch 1 als Hemmer der NF-κB-Aktivierung zur Therapie von Erkrankungen, welche durch die Modifizierung der NF-κB-Aktiierung beeinflußt werden, beruht auf folgenden experimentellen Untersuchungen: Abb. 2: Konzentrationsabhängiger Einfluß von R- und S-Flurbiprofen auf die Aktivierung des Transkriptionsfaktors NF-κB in RAW-Zellen. Die Gelretentionsanalyse (Electro Mobility-Shift Assay; DIG Gel Shift Kit, Boehringer Mannheim) zeigt, daß LPS (1 µg/ml) zu einer Aktivierung von NF-κB (p50/p65 Komplex von NF-κB) führt (Spur Nr. 2 und 10). […] Eine densitometrische Auswertung ergab, daß S-Flurbiprofen hinsichtlich dieser Eigenschaften ca. 100 mal weniger potent war (Spur Nr. 11, 12, 13,14, gegen Spur Nr. 10 als Kontrolle). Spur Nr. 1 und 8 zeigen jeweils unstimulierte Kontrollzellen."}, "[5]": {"tested_on": "postoperative dental pain", "conditions": "clinical study in patients, literature; cited from earlier work"}}}
{"smiles": "CC(C(=O)O)c1ccc(-c2ccccc2)c(F)c1", "note": "(stereo not shown) [Flurbiprofen]", "values": [{"measurement": "Hemmung der Aktivierung von NF-κB", "setting": "NF-κB", "value": "ausgeprägte Hemmung der Aktivierung von NF-κB"}]}
{"smiles": "CC(C(=O)O)c1cccc(C(=O)c2ccccc2)c1", "note": "(stereo not shown) [Ketoprofen]", "values": [{"measurement": "Hemmung der Aktivierung von NF-κB", "setting": "NF-κB", "value": "ausgeprägte Hemmung der Aktivierung von NF-κB"}]}
{"smiles": "COc1ccc2cc([C@H](C)C(=O)O)ccc2c1", "note": "[Naproxen]", "values": [{"measurement": "Hemmung der Aktivierung von NF-κB", "setting": "NF-κB", "value": "ausgeprägte Hemmung der Aktivierung von NF-κB"}]}
{"smiles": "C[C@@H](C(=O)O)c1ccc(-c2ccccc2)c(F)c1", "note": "[R-Flurbiprofen]", "values": [{"measurement": "gastrointestinale Verträglichkeit", "setting": "[1]", "value": "gute gastrointestinale Verträglichkeit"}, {"measurement": "Effekte auf das Pfotenvolumen über 24 Stunden gegen Placebo", "setting": "[2]; 9 mg/kg, compared with 0,5 mg/kg Dexamethason, Abb. 4", "value": "vergleichbar mit denen nach 0,5 mg/kg Dexamethason"}, {"measurement": "Zeitraum, in dem der Effekt auf das Pfotenvolumen besonders ausgeprägt war", "setting": "[2]; hours after zymosan application", "value": "zwischen der 2. und 6. Stunde"}, {"measurement": "Pfotenvolumen", "setting": "[2]", "value": "überraschende Abnahme des Pfotenvolumens"}, {"measurement": "schmerzlindernde Wirkung", "setting": "[3]", "value": "nachgewiesen"}, {"measurement": "Hemmung der LPS induzierten Aktivierung von NF-κB", "setting": "[4]; RAW-Zellen, LPS 1 µg/ml, micromolar concentrations, Abb. 2", "value": "waren in der Lage diese LPS induzierte Aktivierung von NF-κB zu hemmen"}, {"measurement": "Hemmung der NF-κB Aktivierung, mal potenter als die entsprechenden S-Enantiomere", "setting": "[4]; relative to the corresponding S-enantiomer", "value": "ca. 100 mal"}]}
{"smiles": "C[C@@H](C(=O)O)c1cccc(C(=O)c2ccccc2)c1", "note": "[R-Ketoprofen]", "values": [{"measurement": "schmerzlindernde Wirkung", "setting": "[5]", "value": "nachgewiesen"}]}
{"smiles": "C[C@H](C(=O)O)c1ccc(-c2ccccc2)c(F)c1", "note": "[S-Flurbiprofen, reference compound]", "values": [{"measurement": "Pfotenvolumen", "setting": "[2]", "value": "Reduktion des Pfotenvolumens"}, {"measurement": "Potenz der Hemmung der NF-κB Aktivierung, mal weniger potent than R-Flurbiprofen", "setting": "[4]; densitometric evaluation of the gel shift, RAW-Zellen, LPS 1 µg/ml", "value": "ca. 100 mal"}]}
